Test results reported in paper PMC2965657, “Antioxidant Biomarkers from Vanda coerulea Stems Reduce Irradiated HaCaT PGE-2 Production as a Result of COX-2 Inhibition” (PLoS ONE, 2010).
Like-named read-outs stand apart in the source and are kept apart here.

Columns and labels:
[1] = DPPH radical scavenging (DPPH discolouration); details: mean ± sd; half-maximal neutralization of radical DPPH
Procedure: (§1) All in vitro radical-scavenging experiments (DPPH, ^•OH/luminol chemiluminescence) and IC50 calculations were assayed as previously described by Parejo et al. Results were expressed as percentage inhibition of DPPH discolouration and luminol chemiluminescence reduction, respectively. The concentration effect (logarithmic curve) obtained for each compound was used to calculate IC50. Serial dilutions of 1–5, and quercetin (used as standard reference) were prepared in MeOH.

[2] = •OH radical scavenging (luminol chemiluminescence); details: mean ± sd
Procedure: as §1

[3] = tested on: UVB (60 mJ/cm^2) irradiated HaCaT keratinocytes; experiment: PGE-2 production by UVB irradiated HaCaT (EIA); assay type: cell-based, human; details: for IC50: read-out: IC50 inhibition of HaCaT PGE-2 production
Procedure: (§2) For measurement of reactive oxygen species neutralization and PGE-2 quantification with Vanda coerulea stem biomarkers, HaCaT cells were seeded in black 96-well microplates (Greiner Bio One 655090) at a concentration of 10^3 cells/well in complemented KSFM with 5% FBS. Microplates were incubated during 24 h (37°C, 5% CO2) before UVB irradiation at 60 mJ/cm^2 and treatment. For western blot analysis HaCaT cells were seeded at a density of 10^6 cells/ 100 mm dishes and incubated during 48 h before irradiation with UVB at 60 mJ/cm^2 (UV Lamp, VL-6LM, Vilber Lourmat) and treatment. All experiments were performed at 90% cell confluency. Cell viability was previously evaluated thanks to XTT analysis according to Roehm NW et al. Serial dilutions of 1–3, were prepared in DMSO (0.1% v/v final concentration). The first higher concentration tested was not cytotoxic (data not shown).
Indomethacin (2.79 µM), a non-steroidal COX inhibitor, was used as a positive reference. Treated microplates were incubated at 37°C, 5% CO2. Untreated irradiated and non irradiated cells (DMSO 0.1% v/v final) were respectively used as positive and negative controls. After 24 h, supernatants were harvested for PGE-2 concentration measurement and BCA assay was realized to determine total cellular protein in each well. PGE-2 concentration was measured using the enzyme immunoassay Parameter™ PGE-2 kit (R&D Systems) according to the manufacturer's instructions. Each PGE-2 quantification (QPGE-2) was reported to total protein concentration per well.
Results were expressed as inhibition percentage of PGE-2 (I PGE-2) production compared with untreated irradiated cells (positive control).
I PGE-2 = 100- ((QPGE2) sample/ (QPGE2) positive control) ×100.
Inhibition percentages were plotted according to compounds 1–3 concentrations. Logarithmic regression analysis of the mean replicate values was used to calculate IC50 (Concentration causing half-maximal Inhibition of irradiated HaCaT PGE-2 production)

human recombinant COX-2 = molecular target: T1, human recombinant COX-2 (Homo sapiens, UniProt P35354); experiment: COX-2 enzyme activity (PGE-2 formation from arachidonic acid); assay type: biochemical; details: for IC50: 2 µM arachidonic acid, mean ± sd, read-out: IC50 inhibition of COX-2 enzyme activity; for inhibition of COX-2 enzyme activity: up to 100 µM
T1 sequence (P35354 18-604): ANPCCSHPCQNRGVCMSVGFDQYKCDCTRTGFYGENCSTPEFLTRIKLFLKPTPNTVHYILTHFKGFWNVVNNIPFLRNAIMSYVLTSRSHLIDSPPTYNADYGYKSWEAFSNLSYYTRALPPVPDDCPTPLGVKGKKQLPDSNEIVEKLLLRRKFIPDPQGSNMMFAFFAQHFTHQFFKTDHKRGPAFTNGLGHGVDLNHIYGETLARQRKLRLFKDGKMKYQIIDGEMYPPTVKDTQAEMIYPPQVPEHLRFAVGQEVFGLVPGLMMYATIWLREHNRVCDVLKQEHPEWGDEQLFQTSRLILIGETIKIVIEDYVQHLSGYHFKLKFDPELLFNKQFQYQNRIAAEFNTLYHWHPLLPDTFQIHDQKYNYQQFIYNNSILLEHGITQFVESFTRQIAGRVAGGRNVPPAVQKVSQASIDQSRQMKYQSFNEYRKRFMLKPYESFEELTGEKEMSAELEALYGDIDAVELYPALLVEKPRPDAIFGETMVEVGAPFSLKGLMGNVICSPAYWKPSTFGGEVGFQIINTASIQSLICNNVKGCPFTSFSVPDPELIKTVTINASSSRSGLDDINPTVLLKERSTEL
Procedure: Serial dilutions of 1–3 were prepared in DMSO. Six concentrations were tested from 0.1 µM to 100 µM for imbricatin (1), from 0.03 to 100 µM for methoxycoelonin (2) and from 0.3 µM to 100 µM for gigantol (3).
Stilbenoids 1–3, indomethacin and water (negative control) were pre-incubated for 20 min at 22°C with the human recombinant COX-2 enzyme (0.2 µg) in buffer containing 100 mM Tris-HCl (pH 8.0), 2 mM phenol and 1 µM hematine. Thereafter, the reaction was initiated by addition of 2 µM arachidonic acid and the mixture was incubated for 5 min at 22°C. For basal control measurements, arachidonic acid was omitted from the medium. Indomethacin was used as positive inhibitory reference.
Following incubation, the reaction was stopped by the addition of 1 M HCl then 1 M Tris/HCl (pH 8.0) followed by cooling to 4°C. The amount of PGE-2 present in the reaction mixture was quantified using an EIA detection kit (Cayman Chemical).
The results were expressed as inhibition percentage of the control enzyme activity:
100–[(activity measured in the presence of the compound/control enzyme activity) ×100]
The IC50 values (concentration causing a half-maximal inhibition of control enzyme activity) and Hill coefficients (nH) were determined by non-linear regression analysis of the inhibition curves generated with mean replicate values using Hill equation curve fitting.

[4] = cited from earlier work
[5] = tested on: COX-2 expression in irradiated HaCaT cells; experiment: COX-2 expression by Western blot in UVB irradiated HaCaT; assay type: cell-based, human; details: 2.87 µM, 16 h, COX-2/β-actin vs UVB+
Procedure: as §2
After UVB irradiation 100 mm dishes were treated with stilbenoids 1–3 at 23 µM and 2.87 µM in a serum free medium and incubated during 16 h (37°C, 5% CO2). Untreated irradiated (UVB+) and non irradiated (UVB-) cells were used as positive and negative controls respectively. […] The protein concentration of each sample was determined using a Bradford assay. […] Results were expressed as fold decrease compared to the (UVB+) control. […]

[6] = tested on: H2O2 stressed HaCaT cells; experiment: Intracellular ROS neutralization with DCFH-DA probe in H2O2 stressed HaCaT; assay type: cell-based; details: Homo sapiens, H2O2 100 µM, mean ± sd
Procedure: as §2
The DCFH-DA method was used to detect the levels of intracellular ROS [32] DCFH-DA diffuses into cells, where it is hydrolyzed by intracellular esterase to polar 2′,7′-dichlorodihydrofluorescein. This non-fluorescent fluorescein analog is oxidized by intracellular oxidants to a highly fluorescent, 2′,7′-dichlorofluorescein. Tocopherol [Sigma] (25 µM) was used as a positive reference. HaCaT cells were seeded as described and treated with serial dilutions of 1–3 and quercetin (standard reference) after 24 h incubation. Treated microplates were further incubated during 24 h (37°C, 5% CO2). HaCaT cells were washed with phosphate buffer saline (PBS), and DCFH-DA (0.05 mM) was added to the cells. 45 min after incubation, cells were stimulated by a H2O2 solution (100 µM in PBS) to generate an oxidative stress. Immediately after F(T0) and 40 min after stimulation F(T40), DCFH fluorescence was detected at an excitation wavelength of 485 nm and an emission wavelength of 535 nm, using a SpectraFluor Plus spectrofluorometer (Tecan). Two kinds of assay controls were used: negative control was non-stimulated cells and positive control was H2O2 stressed cells (DMSO 0.1% v/v). Results were expressed in percentage of fluorescence inhibition (% of ROS neutralization) calculated by comparison with H2O2 stimulated cells.
(% of ROS neutralization) = [1- [F(T40)-F(T0)] sample/[F(T40)-F(T0)] positive control] ×100.
Inhibition percentages were plotted according to compounds 1–3 and quercetin concentrations. Logarithmic regression analysis of the mean replicate values was used to calculate IC50 (Concentration causing half-maximal neutralization of ROS on H2O2 stressed HaCaT)

[7] = tested on: irradiated (UVB 60 mJ/cm2) normal human epidermal keratinocytes (NHEK); experiment: PGE-2 release from UVB irradiated normal human epidermal keratinocytes; assay type: cell-based; details: light or radiation study, vs UVB+ control, read-out: inhibition of PGE-2 production
Procedure: Supplementary file pone.0013713.s001.tif: Figure S1 Concentration-dependent effect of stilbenoids (1-3) on PGE-2 release from irradiated (UVB 60 mJ/cm2) normal human epidermal keratinocytes (NHEK). Histogram represents the quantity of PGE-2 produced (PGE-2/ total NHEK proteins pg/µg) according to different treatments. Untreated irradiated (UVB+) and non irradiated (UVB-) NHEK were used as positive and negative controls, respectively. […] Inhibition percentages of PGE-2 release were calculated by comparison with the positive control (UVB+). Values represen mean ± sds calculated with three independent experiments. Treatment groups were compared by using one way analysis of variance ANOVA post-hoc test. Student paired t test was used to compare each stilbenoid effect to the positive control. Statistical significance (*) was set at p<0.05. Significant differences were observed between each biomarker effect. IC50 were calculated with more points than those represented here on the graph. (0.82 MB TIF) Click here for additional data file.

[8] = Homo sapiens, light or radiation study, UVB 60 mJ/cm^2 irradiated HaCaT, 24 h, mean ± sd

Molecule	IC50 [1] [µM]	IC50 [2] [µM]	IC50 (human recombinant COX-2) [µM]	inhibition of COX-2 enzyme activity (human recombinant COX-2)	IC50 [6] [µM]	IC50 [3, 8] [µM]	other results
COc1cc(O)cc(CCc2ccc(O)c(OC)c2)c1 [Gigantol (3), Gigantol]	14 ± 1.69	0.157 ± 0.039	≥ 100	did not display significant inhibition	20.6 ± 0.5	–	inhibition of PGE-2 production ([3]; 2.87 µM, UVB irradiated HaCaT): strong inhibition; fold stronger inhibition of PGE-2 production on human HaCaT than on murine macrophage RAW 264.7 ([3]; HaCaT (this work) versus RAW 264.7 (ref 38)): 16 fold; IC50 inhibition of HaCaT PGE-2 production ([3]; UVB 60 mJ/cm^2 irradiated HaCaT, 24 h, mean ± sd): No concentration-dependanteffect; IC50 ([4]; Zhang X et al): 56.4 µM; effect on UVB-induced COX-2 expression [5]: did not inhibit
COc1ccc2c(c1)c(CC(=O)O)c(C)n2C(=O)c1ccc(Cl)cc1 [Indomethacin, reference compound]	–	–	–	–	–	2.7 ± 0.7	inhibition at 2.79 µM ([3]; Homo sapiens, light or radiation study, 2.79 µM, UVB irradiated HaCaT, vs UVB+ control): 54%; inhibition at 2.79 µM [7]: 86%
Coelonin [Coelonin (5)]	8.47 ± 1.58	0.079 ± 0.018	–	–	–	–	IC50 ([4]; Wang J et al): 16.7 µM

The remaining molecules from weak to strong by IC50 [1], led by results:

IC50 [1] [µM]	IC50 [2] [µM]	IC50 (human recombinant COX-2) [µM]	inhibition of COX-2 enzyme activity (human recombinant COX-2)	Molecule	IC50 [6] [µM]	IC50 [3, 8] [µM]	other results
9.01 ± 0.93	0.035 ± 0.008	5.8 ± 1.2	inhibited significantly	COc1cc2c(cc1O)CCc1cc(O)cc(OC)c1-2 [Methoxycoelonin (2), Methoxycoelonin]	9.4 ± 2.1	19.3 ± 3.8	–
8.37 ± 0.61	0.034 ± 0.011	12 ± 1.2	inhibited significantly	COc1c(O)cc2c3c1COc1cc(O)cc(c1-3)CC2 [Imbricatin (1), Imbricatin]	8.8 ± 1.7	12.2 ± 2.9	IC50 ([4]; Guo XY et al): 8.8 µM
6.61 ± 1.07	0.076 ± 0.014	–	–	Oc1cc2c3c(c1)COc1cc(O)cc(c1-3)CC2 [Flavidin (4), Flavidin]	–	–	–
2.42 ± 0.65	0.045 ± 0.012	–	–	O=c1c(O)c(-c2ccc(O)c(O)c2)oc2cc(O)cc(O)c12 [Quercetin, reference compound]	13.8 ± 2.2	–	–
